# Test results published in PMC11945486, “TAS1R2/TAS1R3 Single-Nucleotide Polymorphisms Affect Sweet Taste Receptor Activation by Sweeteners: The SWEET Project” (Nutrients, 2025).
# Molecular target: T1, human TAS1R2-S212G (subunit alone) (Homo sapiens, UniProt Q8TE23, S212G)
# T1 construct: expressed in transfected cells; host or cells: HEK293T-Gα16gust44
# T1 sequence (Q8TE23 20-839 S212G): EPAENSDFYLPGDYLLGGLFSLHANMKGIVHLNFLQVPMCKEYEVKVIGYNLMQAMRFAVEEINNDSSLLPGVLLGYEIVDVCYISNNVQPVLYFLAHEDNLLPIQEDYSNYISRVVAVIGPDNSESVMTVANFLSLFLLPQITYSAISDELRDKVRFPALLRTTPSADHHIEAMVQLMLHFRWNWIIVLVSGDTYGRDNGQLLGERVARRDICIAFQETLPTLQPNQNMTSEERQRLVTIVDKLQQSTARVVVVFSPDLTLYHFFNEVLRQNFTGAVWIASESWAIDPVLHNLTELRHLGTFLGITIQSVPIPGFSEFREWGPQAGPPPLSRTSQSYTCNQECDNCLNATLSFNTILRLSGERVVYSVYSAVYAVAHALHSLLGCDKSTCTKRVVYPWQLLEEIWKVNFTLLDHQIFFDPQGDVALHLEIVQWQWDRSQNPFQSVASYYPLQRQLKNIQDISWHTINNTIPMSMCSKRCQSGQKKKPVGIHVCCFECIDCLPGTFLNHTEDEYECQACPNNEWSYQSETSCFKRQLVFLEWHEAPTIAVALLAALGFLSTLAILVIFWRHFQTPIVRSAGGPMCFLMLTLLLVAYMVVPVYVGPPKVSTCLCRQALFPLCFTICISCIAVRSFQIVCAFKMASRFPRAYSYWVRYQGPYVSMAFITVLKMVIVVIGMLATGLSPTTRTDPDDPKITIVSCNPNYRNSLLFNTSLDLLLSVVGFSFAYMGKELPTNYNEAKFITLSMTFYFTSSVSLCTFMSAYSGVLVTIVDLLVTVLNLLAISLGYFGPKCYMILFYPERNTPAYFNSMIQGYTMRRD
# Experiment: Calcium mobilisation assay, TAS1R2-S212G subunit alone
# Type: cell-based
# Description: The coding sequences for TAS1R2 and TAS1R3 were commercially synthesised, and the human codon was optimised for expression in human cells. The coding sequences of human TAS1R2 and TAS1R3 were subcloned and inserted into the mammalian expression vectors pcDNA6/myc-HisA and pcDNA4/myc-HisA (Invitrogen; Thermo Fisher Scientific; Illkirch, France) between the EcoRI and NotI restriction sites, generating the plasmids pcDNA6-TAS1R2 and pcDNA4-TAS1R3, respectively. To increase protein expression in mammalian cells, an upstream start codon was used, which was a sequence called MAX, corresponding to the QBI SP163 element also described in pcDNA4-HisMax (Invitrogen; Thermo Fisher Scientific; Illkirch, France). To measure the expression level of the receptor by immunohistochemistry, we used the FLAG sequence ([…]) in the C-terminal position, which encodes the FLAG tag epitope. […]
# The HEK293T cells were kindly provided by Jay P. Slack (Givaudan Flavors Corporation; Cincinnati, OH, USA). […] The fluorescence intensity was measured for 90 s (excitation 488 nm, emission 510 nm) in an automated fluorometric FlexStation®3 Multi-Mode microplate reader (Molecular Devices; San Jose, CA, USA). […] The Ca^2+ changes were expressed as fractional changes in fluorescent light intensity: ΔF/F = (F − F0)/F0, where F was the fluorescent light intensity at each point, and F0 was the value of emitted fluorescent light prior to stimulus application. To calculate dose–response relationships, the changes in fluorescence upon stimulus application were averaged, mock-subtracted and baseline-corrected. […] The half-maximal effective concentrations (EC50 values) and maximal signal amplitudes were calculated using SigmaPlot software (version 15.0) (Systat Software; San Jose, CA, USA).
# For in vitro calcium mobilisation assay performed on hTAS1R2-SNPs, hTAS1R3-SNPs and mTAS1R3-I60T, 6 to 7 concentrations were tested for each sweet compound, plus buffer alone. All concentration–receptor combinations were measured in duplicate, and each experiment was repeated at least 4 times (8 wells/concentration). […]
compound,measurement,setting,value
"C=C(C)[C@@H]1CC=C(/C=N/O)CC1 [Perillartine, perillartine]",EC50,,178 ± 22.7 µM
same,R1 = Variant EC50/WT EC50,,2.0
same,Max ΔF/F0,maximal signal amplitude,0.47 ± 0.02
